From patent US9687432B2, “Antimicrobial bispyridine amine compositions and uses” (LONZA INC., priority 2012, dated 2017)
Structures can show the parent of a compound that is named as a salt. Blank lines part the entries; values can stand above or below the compound they belong to.

How the values were obtained:
[1] = system: Escherichia coli (10536); assay: Minimum Inhibitory Concentration (MIC) test, 96-well microtiter plate; type: cell-based; details: 48 hrs at 36° C., visual inspection
Description: (§1) MICs for the organisms were determined using a standard 96-well microtiter plate assay in Tryptic Soy Broth (TSB) or Sabouraud Dextrose Broth (SDB). A stock solution (2500 ppm) of Octenidine distearate was prepared in methanol and stock solutions (2500 ppm) of Octenidine dihydrochloride and PHMB were prepared in absolute ethanol. […] Fungal inocula were grown up on Sabouraud Dextrose Agar plates (yeast) or Potato Dextrose Agar plates (mold) and mold spores and yeast cells were adjusted to approximately 100,000 per milliliter in Sabouraud Dextrose Broth (pH 5.6). Bacterial and fungal cultures were used to inoculate the serially diluted antimicrobials in the 96 well microplate and the plate was then incubated for 48 hrs at 36° C. The lowest concentration of test compound inhibiting growth at 48 hrs. (as determined by visual inspection) was recorded as the Minimum Inhibitory Concentration (MIC)

[2] = system: Bacillus subtilus (6633); assay: as above; type: cell-based; details: 48 hrs at 36° C., visual inspection
Description: as §1

[3] = system: Candida albicans (10231); assay: as above; type: cell-based; details: 48 hrs at 36° C., Sabouraud Dextrose Broth
Description: as §1

[4] = system: Staphylococcus aureus (6538); assay: as above; type: cell-based; details: 48 hrs at 36° C., visual inspection
Description: as §1

[5] = system: Pseudomonas aeruginosa (15442); assay: as above; type: cell-based; details: 48 hrs at 36° C., visual inspection
Description: as §1

[6] = system: Penicillium pinophilium (11797); assay: as above; type: cell-based; details: 48 hrs at 36° C., Sabouraud Dextrose Broth
Description: as §1

[7] = system: Aspergillus niger (16404); assay: as above; type: cell-based; details: 48 hrs at 36° C., Sabouraud Dextrose Broth
Description: as §1

[8] = system: Gliocladium virens (9645); assay: as above; type: cell-based; details: 48 hrs at 36° C., Sabouraud Dextrose Broth
Description: as §1

[9] = system: Paecilomyces sp.; assay: as above; type: cell-based; details: 48 hrs at 36° C., Sabouraud Dextrose Broth
Description: as §1

[10] = system: LB penicillium sp.; assay: as above; type: cell-based; details: 48 hrs at 36° C., Sabouraud Dextrose Broth
Description: as §1

[11] = system: Enterobacter gergoviae (33028); assay: as above; type: cell-based; details: 48 hrs at 36° C., visual inspection
Description: as §1

[12] = system: Aureobasidium pullulans (9348); assay: as above; type: cell-based; details: 48 hrs at 36° C., Sabouraud Dextrose Broth
Description: as §1

[13] = system: Pseudomonas aeruginosa (9027); assay: as above; type: cell-based; details: 48 hrs at 36° C., visual inspection
Description: as §1

[14] = system: Enterococcus hirae (8043); assay: as above; type: cell-based; details: 48 hrs at 36° C., visual inspection
Description: as §1

[15] = system: Klebsiella pneumoniae (4352); assay: as above; type: cell-based; details: 48 hrs at 36° C., visual inspection
Description: as §1

[16] = system: Staphylococcus haemolyticus (29970); assay: MIC test against skin microorganisms; type: cell-based; details: 48 hrs at 36° C., two different sets
Description: (§2) MICs for the organisms were determined using a standard 96-well microtiter plate assay in Trypic Soy Broth (TSB). […] Bacteria were grown in Tryptic Soy Broth or Brain Heart Infusion (E. hirae) for 24 hrs and were adjusted to one million cells per milliliter in same type of broth. Following incubation (48 hrs at 36° C.), the lowest concentration of test compound inhibiting growth was recorded as the Minimum Inhibitory Concentration (MIC). The actives were serially diluted and tested at final concentrations ranging from 156.3-0.61 ppm. MIC was run for two different sets.
(§3) Bacteria were grown overnight in Tryptic Soy Brother (TSB) or Brain Heart Infusion (BHI) and were adjusted to approximately 1×10^6 colony forming units per ml (cfu/ml) and used to inoculate the wells. Final bacterial concentration in the test wells was 5×10^5 cfu/ml. For Corynebacterium spp, TSB was used for the first set and BHI for the second set. Inoculated microtiter plates were incubated at 36° C. for 48 hours.
(§4) The lowest concentration of test compound inhibiting growth was recorded as the minimum inhibitory concentration.

[17] = system: Bacillus licheniformis (14580); assay: MIC test against skin microorganisms; type: cell-based; details: 48 hrs at 36° C., two different sets
Description: as §2, §3, §4

[18] = system: Corynebacterium xerosis (373); assay: MIC test against skin microorganisms; type: cell-based; details: 48 hrs at 36° C., TSB first set, BHI second set
Description: as §2, §3, §4

[19] = system: Staphylococcus epidermidis (12228); assay: MIC test against skin microorganisms; type: cell-based; details: 48 hrs at 36° C., two different sets
Description: as §2, §3, §4

[20] = system: Corynebacterium minutissimum (23348); assay: MIC test against skin microorganisms; type: cell-based; details: 48 hrs at 36° C., TSB first set, BHI second set
Description: as §2, §3, §4

[21] = system: mixed pool of bacteria (Staphylococcus epidermis, Corynebacterium minutissimum, Staphylococcus haemolyticus, Corynebacterium xerosis, Micrococcus luteus) on …; assay: Control of growth of skin microorganisms on pig skin; type: cell-based, skin bacteria on pig skin; details: 200 ppm in ethanol, 100 μl on pig skin, mixed bacterial pool, 35° C., 8 hour time period
Description: To further investigate the potential of the bispyridine amine compounds of the present invention for use as antimicrobial active ingredients in personal care products and cosmetics, the efficacy of octenidine distearate in controlling growth of skin microorganisms compared to Cosmocil® S was evaluated using different skin mimics. Testing was performed using pig skin. Although alternatives, such as VITRO-SKIN®, offered a less variable test matrix, it was decided that testing on pig skin was a better model for this application, as the pig skin allowed for actual growth of bacteria on the surface, not merely the survival of bacteria on the surface, providing more representative user skin conditions. The typical skin microorganisms Staphylococcus epidermis (ATCC 12228), Corynebacterium minutissimum (ATCC 23348), Staphylococcus haemolyticus (ATCC 29970), Corynebacterium xerosis (ATCC 373), and Micrococcus luteus (ATCC 4698), were grown in Tryptic Soy Broth (TSB) at 35-37° C. for approximately 24 hours. Each bacterial suspension was diluted 1:50 in TSB and then inoculum was prepared by mixing equal volume of each bacterial suspension. The final inoculum was plated in TSA to get an accurate count and used as a mixed pool of bacteria. […] Plates were incubated at 35-37° C. for 48 hours before the colonies were counted, and the mean values calculated.

MIC [1]: 0.61 mg/L
MIC [2]: 0.61 mg/L
MIC [3]: 0.31 mg/L
MIC [4]: 0.61 mg/L
MIC [5]: 1.22 mg/L
MIC [6]: < 0.31 mg/L
MIC [7]: 1.22 mg/L
MIC ([8]; Trichoderma virens): < 0.31 mg/L
MIC [9]: 78.1 mg/L
MIC [10]: 0.61 mg/L
MIC ([11]; Pluralibacter gergoviae): 1.22 mg/L
MIC [12]: 0.61 mg/L
MIC [13]: 1.22 mg/L
MIC [14]: 0.61 mg/L
MIC [15]: 0.61 mg/L
Structure (SMILES): CCCCCCCCN=c1ccn(CCCCCCCCCCn2ccc(=NCCCCCCCC)cc2)cc1 [Octenidine HCl, Octenidine dihydrochloride]

MIC (ppm) [17]: 9.76-19.53 ppm
MIC (ppm) [18]: 39.06 ppm
MIC (ppm) [19]: 4.88-9.76 ppm
MIC (ppm) [20]: 2.44-39.06 ppm
Minimum Inhibitory Concentration (MIC) [1]: 2.44 ppm
Minimum Inhibitory Concentration (MIC) [2]: 1.22 ppm
Minimum Inhibitory Concentration (MIC) [3]: 0.61 ppm
Minimum Inhibitory Concentration (MIC) [4]: 2.44 ppm
Minimum Inhibitory Concentration (MIC) [5]: 19.53 ppm
Minimum Inhibitory Concentration (MIC) [6]: 2.44 ppm
Minimum Inhibitory Concentration (MIC) [7]: 9.77 ppm
Minimum Inhibitory Concentration (MIC) [8]: 2.44 ppm
Minimum Inhibitory Concentration (MIC) [9]: 156.25 ppm
Minimum Inhibitory Concentration (MIC) [10]: 2.44 ppm
Minimum Inhibitory Concentration (MIC) [11]: 4.88 ppm
Minimum Inhibitory Concentration (MIC) [12]: 1.22 ppm
Minimum Inhibitory Concentration (MIC) [13]: 4.88 ppm
Minimum Inhibitory Concentration (MIC) [14]: 4.88 ppm
Minimum Inhibitory Concentration (MIC) [15]: 2.44 ppm
Structure (SMILES): CCCCCCCCCCCCCCCCCC(=O)O.CCCCCCCCCCCCCCCCCC(=O)O.CCCCCCCCN=c1ccn(CCCCCCCCCCn2ccc(=NCCCCCCCC)cc2)cc1 [Octenidine distearate, octenidine distearate]
MIC (ppm) [16]: 4.88-9.76 ppm
efficacy in controlling growth of skin microorganisms (CFU/cm^2 of skin, FIG. 1) [21]: equally as effective as Cosmocil® S
